This is an account of results in US7732460B2 (priority 2005, dated 2010).

The subject of this experiment is panel of Gram-positive organisms (Staphylococcus aureus, Streptococcus pneumoniae, Streptococcus pyogenes, Enterococcus faecalis, Enterococcus faecium) and …. Type of experiment: cell-based, Gram-positive and Gram-negative bacteria. The conditions noted are these: against all of the strains representing the organisms listed; serial two-fold dilutions 0.016 to 16 mcg/mL.

SMILES strings stand for the structures.

With `COc1cnc2ccc(=O)n3c2c1[C@](O)(CN1CCC(NCc2cc4c(nn2)OCCO4)CC1)C3` [Example 66], the MIC values is more than 16 µg/mL.
